Results reported in patent publication US7335635B2, “14-3-3 binding molecules as sensitizers for anticancer therapies” (Emory University, priority 2001, dated 2008).
One block for each molecule: values may come before it.

Columns and labels:
COS-7 cells [1] = test: DNA content (sub G0) by propidium iodide flow cytometry; type: cell-based; conditions: for cell death (fraction of cells with sub G0 DNA content): 24 hours after transfection, FIG. 5
Experimental: The two acidic residues of R18 (Asp and Glu) which are involved in coordinating the basic cluster of 14-3-3 were changed to lysine. This peptide is not expected to bind 14-3-3, but it could retain interaction with other cellular partners if they do exist. Cos-7 cells were cotransfected with a farnesylated (EGFP[)] marker along with EYFP, EYFP-R18, or EYFP-R18 (D12K,E14K). After 24 hours, cells were fixed in ethanol and DNA was stained with propidium iodide. EGFP and PI signal intensities were measured on a FACScan flow cytometer (Becton Dickinson), and transfected cells were placed in various phases of the cell cycle based on their DNA content.
In yet another assay, (FIG. 8c) Cos-7 cells were transfected with EYFP or EYFP-difopein as indicated, and cell death was determined as in FIG. 5. Internucleosomal DNA cleavage, which is a commonly used marker of apoptosis, produces small fragments that can diffuse out of cells during ethanol fixation resulting in decreased signals being seen on staining for DNA (Sub-G0 DNA content). Therefore, the appearance of cell containing sub G0 levels of DNA indicates apoptotic cell death.

14-3-3 = conditions: phosphorylation-independent interaction; cited from earlier work
14-3-3ζ dimer = target: T1, 14-3-3ζ dimer (Bos taurus, UniProt P63103); test: R18-Sepharose bead competition with Bad derived phosphopeptides for 14-3-3 binding; conditions: 100 nM 14-3-3ζ dimer; FIG. 2
T1 sequence (P63103 1-245): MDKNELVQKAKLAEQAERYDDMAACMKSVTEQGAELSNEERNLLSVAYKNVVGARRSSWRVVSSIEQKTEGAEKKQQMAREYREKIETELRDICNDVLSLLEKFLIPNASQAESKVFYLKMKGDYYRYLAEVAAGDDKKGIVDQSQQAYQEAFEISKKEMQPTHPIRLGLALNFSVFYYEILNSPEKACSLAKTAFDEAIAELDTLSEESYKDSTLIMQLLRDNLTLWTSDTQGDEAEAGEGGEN
Experimental: R18 was covalently coupled to Sepharose beads. The beads were then incubated with 100 nM 14-3-3ζ dimer along with the indicated concentrations of synthetic phosphopeptides derived from Bad. pS136 contains a 14-3-3 binding site, while pS112 is a similar peptide incapable of binding 14-3-3. Unbound 14-3-3 was washed away from the beads and the remaining proteins were visualized by SDS-PAGE and sliver staining. […] See also, Masters et al. (2001) Molecular Pharmacology 60: 1325-1331, herein incorporated by reference.

14-3-3ζ/ASK1 = target: T2, 14-3-3ζ/ASK1 (Bos taurus, UniProt P63103); test: Peptide inhibition of [35S]-ASK1 binding to immobilized His-14-3-3ζ; conditions: FIG. 1
T2 sequence (P63103 1-245): T1 sequence (P63103 1-245)
Experimental: To determine the effectiveness of various 14-3-3 antagonist, including R18, S-Raf259, and pS-Raf-259, the peptide antagonists were preincubated with immobilized His-14-3-3ζ before adding [^35S]-labeled ASK1. After washing, 14-3-3-bound ASK1 was quantified by PhosphorImager. The percentage of ASK1 bound to 14-3-3 relative to peptide-free samples is plotted against increasing concentration of the test peptides (FIG. 1).

COS-7 cells [2] = test: Attachment based viability assay (lacZ marker, β-gal activity); type: cell-based; conditions: expression from transfected vector, FIG. 4, FIG. 8a
Experimental: R18 is placed under the control of the CMV promoter in a mammalian expression vector pCR3.1 (pSCM110). Cells expressing the control pcDNA3 along with a lacZ marker gave high β-gal activity that was set as 100% survival. […] The R18 effect was dose-dependent because increased R18 expression was correlated with decreased cell viability.
In FIG. 8a, Cos-7 cells were co-transfected with myc-tagged difopein or a control vector along with a lacZ reported gene. After approximately 48 hours floating cells were gently washed away and attached cells were lysed and assayed for β-galactosidase.

COS-7 cells [3] = test: Annexin V phenotype of R18 induced cell death; type: cell-based; conditions: data not shown
14-3-3 proteins = conditions: cited from earlier work
COS-7 cells [4] = test: Cisplatin-induced cell death with R18 expression, viability assay; type: cell-based; conditions: myc-tagged R18, cisplatin added 12 hours after transfection, read about 36 hours later; FIG. 11a
Experimental: (§1) Inhibition of 14-3-3/ligand interactions may facilitate apoptotic cell death induced by cytotoxic agents. To test this possibility, the effects of expression of R18 and difopein on cisplatin-induced cell death was examined (FIG. 11). In FIG. 11a, Cos-7 cells were transfected with a lacZ marker gene along with myc-tagged R18 DNA (amount used shown as the fraction of total DNA). 12 hours after transfection, the indicated concentrations of cisplatin were added. Approximately 36 hours later the viability of the cells was determined as in FIG. 3 above. In FIG. 11b, HeLa cervical cancer cells were transfected with EYFP or EYFP-difopein as indicated. 24 hours later, 50 μM cisplatin or vehicle was added. After 24 hours of cisplatin treatment, the cells were assayed as in 2 above.

caspase 3 = test: Caspase 3 activity in cell lysates (pNA release from Ac-DEVD-pNA); type: cell-based; conditions: FIG. 10a
Experimental: Cos-7 cells were lysed 12 hours after transfection with various amounts of DNA coding for EYFP-difopein. Equal amounts of lysates were assayed for the ability to liberate p-nitroaniline (pNA) from the caspase 3 substrate Ac-DEVD-pNA. […] In another study, Cos-7 cells were assayed as in FIG. 5, except that they were treated with 50 μM of the pan-caspase inhibitor zVAD-fink or vehicle immediately prior to transfection (FIG. 10b).

[5] = system: HeLa cervical cancer cells; test: Cisplatin-induced cell death with EYFP-difopein expression; type: cell-based; conditions: 50 μM cisplatin for 24 hours, FIG. 11b
Experimental: as §1

14-3-3ζ/Raf-1 = target: T3, 14-3-3ζ/Raf-1 (Bos taurus, UniProt P63103); test: Co-immunoprecipitation of FLAG-14-3-3ζ and endogenous Raf-1 in transfected HEK293 cells; type: cell-based; conditions: FIG. 3
T3 sequence (P63103 1-245): T1 sequence (P63103 1-245)
Excerpt: Difopein is a 62 amino acid polypeptide having 14-3-3 antagonist activity. The amino acid sequence of difopein is shown in SEQ ID NO:2 and comprises two R18 monomers (amino acids 6-25 and 37-56 of SEQ ID NO:2) separated by non-repeat linker sequences (amino acids 26-36 of SEQ ID NO:2). […] Specifically, HEK293 cells were transfected with DNA coding for FLAG-tagged 14-3-3ζ and either EYFP or EYFP-difopein as indicated. 14-3-3 was immunoprecipitated using anti-FLAG (M2; Sigma Chemical Co.). In the presence of EYFP, 14-3-3ζ was able to co-precipitate endogenous Raf-1. […] See also, Masters et al. (2001) Journal of Biological Chemistry 276: 45193-45200, herein incorporated by reference.

COS-7 cells [6] = test: Viability by microscopic examination of morphology of X-gal stained transfected cells; type: cell-based; conditions: about 24 hours post transfection; FIG. 8b
Experimental: In another assay, Cos-7 cells were cotransfected with a lacZ marker in addition to any EYFP-difopein fusion, EYFP alone, or empty vector. Approximately 24 hours post transfection, cells were fixed and transfected cells were identified by staining with X-gal. Viability of the transfected cells was determined by microscopic examination of cell morphology: live cells were flat, while dead cells were rounded up.

Molecule: R18 (D12K, E14K): R18 with the two acidic residues (Asp and Glu) that coordinate the basic cluster of 14-3-3 changed to lysine (PHCVPRDLSWLKLKANMCLP; left off: large carriers)
cell death (fraction of cells with sub G0 DNA content) (COS-7 cells [1]): unable to induce cell death

Molecule: Pseudomonas aeruginosa exoenzyme S: exoenzyme S from Pseudomonas aeruginosa, a phosphorylation-independent 14-3-3 ligand
affinity for the amphipathic groove of 14-3-3 (14-3-3): high affinity

Molecule: Ac-DEVD-CHO [reference compound]
block of EYFP-difopein induced pNA release (caspase 3; Cos-7 lysates): completely blocked

B2: EYFP-difopein: EYFP-difopein fusion expressed from transfected DNA (protein)
chain: SADGAPHCVPRDLSWLDLEANMCLPGAAGLDSADGAPHCVPRDLSWLDLEANMCLPGAAGLE
modifications: left off: large carriers
notes: EYFP-difopein fusion expressed from transfected DNA
co-precipitation of endogenous Raf-1 with 14-3-3ζ (14-3-3ζ/Raf-1; anti-FLAG immunoprecipitation): blocked co-precipitation of Raf-1
reduction of the live cell population (COS-7 cells [6]): about one-half
pNA release from caspase 3 substrate Ac-DEVD-pNA (caspase 3; Cos-7 lysates 12 hours after transfection): dose dependent increase in pNA release

Now from value to molecule, other results behind:

inhibitory effect on 14-3-3ζ/ASK1 compared with pS-Raf-259 (14-3-3ζ/ASK1): stronger inhibitory affect
inhibition of the interaction of 14-3-3ζ with ASK1 (14-3-3ζ/ASK1; peptide preincubated with immobilized His-14-3-3ζ): potent inhibitory affect
Molecule: PHCVPRDLSWLDLEANMCLP [R18]
cell death (fraction of cells with sub G0 DNA content) (COS-7 cells [1]): increase in the fraction of cells containing less than normal amounts of DNA
competition with Bad derived peptide for 14-3-3 binding (14-3-3ζ dimer): competes with a Bad derived peptide for 14-3-3 binding
cell viability (β-gal activity) (COS-7 cells [2]): drastically decreased the population of viable cells
annexin V phenotype (COS-7 cells [3]): annexin V-positive phenotype
specificity for 14-3-3 proteins (14-3-3 proteins): high specificity
Kd (14-3-3 proteins; different isoforms of 14-3-3, similar affinity): 80 nM
enhancement of cisplatin-induced cell death (COS-7 cells [4]): enhance the ability of an antineoplastic drug to kill cells

binding to 14-3-3 in vivo (14-3-3ζ/Raf-1): can bind 14-3-3 in vivo
B1: difopein: 62 amino acid polypeptide comprising two R18 monomers separated by a non-repeat linker sequence (protein)
chain: B2 chain
modifications: difopein polypeptide sequence
cell death compared with monomeric R18 (COS-7 cells [1]; EYFP-tagged constructs, FIG. 7): dramatically enhanced the cell death
effect on the cell cycle (DNA content distribution, sub G0 cells excluded) (COS-7 cells [1]; FIG. 8c, not shown): does not disrupt the cell cycle
sensitivity of induced cell death to constitutively active Akt (COS-7 cells [1]; co-expression of constitutively active Akt, FIG. 9): relatively insensitive to Akt expression
enhancement of cisplatin-induced cell death [5]: enhance the ability of an antineoplastic drug to kill cells
cell viability (β-gal activity) (COS-7 cells [2]): decreased β-gal activity
